Experimental data as given in ChEMBL document CHEMBL1136458, “MexAB-OprM specific efflux pump inhibitors in Pseudomonas aeruginosa. Part 2: achieving activity in vivo through the use of alternative scaffolds” (Bioorg Med Chem Lett, 2003).

Key:
Pseudomonas aeruginosa [1] = assay: Minimum concentration ([…]) of inhibitor required to reduce (potentiate) the activity of antibacterial drug-LVFX for Pseudomonas aeruginosa PAM1723 by n-fold; format: functional
[2] = Ratio of potentiation of AZT without serum to with serum; format: functional
Albumin = Albumin (Homo sapiens, UniProt P02768); assay: Protein binding affinity for human serum albumin was measured
Pseudomonas aeruginosa [3] = assay: Minimum Potentiation Concentration of EPI required to achieve an 8-fold reduction in antibiotic MIC of AZT against MexAB-OprM pump system in Pseudomonas aeruginosa without horse serum; format: functional
Pseudomonas aeruginosa [4] = assay: Minimum Potentiation Concentration of EPI required to achieve an 8-fold reduction in antibiotic MIC of AZT against MexAB-OprM pump system in Pseudomonas aeruginosa with 10% horse serum; format: functional
Pseudomonas aeruginosa [5] = assay: Minimum Potentiation Concentration of EPI required to achieve an 8-fold reduction in antibiotic MIC of levofloxacin against MexABOprMover-expressing strain of Pseudomonas aeruginosa; format: functional
Mus musculus [6] = assay: In vivo number of survivors on day 0 after administration at the dose of 50 mg/kg along LVFX (7.5 mg/kg) along with in mice (Pseudomonas aeruginosa PAM1723); format: functional
Mus musculus [7] = assay: In vivo number of survivors on day 0 after administration at the dose of 50 mg/kg along LVFX (15 mg/kg) in mice (Pseudomonas aeruginosa PAM1723); format: functional
Mus musculus [8] = assay: In vivo number of survivors on day 4 after administration at the dose of 50 mg/kg along LVFX (15 mg/kg) in mice (Pseudomonas aeruginosa PAM1723); format: functional
Pseudomonas aeruginosa [9] = assay: In vivo percent survival on day 7th after administration at the dose of 50 mg/kg along LVFX (15 mg/kg) in Pseudomonas aeruginosa PAM1723; format: functional
Mus musculus [10] = assay: In vivo number of survivors on day 7 after administration at the dose of 50 mg/kg along LVFX (15 mg/kg) in mice (Pseudomonas aeruginosa PAM1723); format: functional
Pseudomonas aeruginosa [11] = assay: In vivo percent survival on day 7th after administration at the dose of 50 mg/kg along LVFX (7.5 mg/kg) in Pseudomonas aeruginosa PAM1723; format: functional
Mus musculus [12] = assay: In vivo number of survivors on day 4 after administration at the dose of 50 mg/kg along LVFX (7.5 mg/kg) in mice (Pseudomonas aeruginosa PAM1723); format: functional
Mus musculus [13] = assay: In vivo number of survivors on day 1after administration at the dose of 50 mg/kg along LVFX (15 mg/kg) in mice (Pseudomonas aeruginosa PAM1723); format: functional
Mus musculus [14] = assay: In vivo number of survivors on day 7 after administration at the dose of 50 mg/kg along LVFX(7.5 mg/kg) in mice (Pseudomonas aeruginosa PAM1723); format: functional
Mus musculus [15] = assay: In vivo number of survivors on day 1after administration at the dose of 50 mg/kg along LVFX (7.5 mg/kg) in mice (Pseudomonas aeruginosa PAM1723); format: functional
Mus musculus [16] = assay: In vivo number of survivors on day 1 after administration (7.5 mg/kg) in mice(Pseudomonas aeruginosa PAM1723); format: functional
Mus musculus [17] = assay: In vivo number of survivors on day 1 after administration (30 mg/kg) in mice(Pseudomonas aeruginosa PAM1723); format: functional
Mus musculus [18] = assay: In vivo percent survival on day 7th after administration (15 mg/kg) in mice(Pseudomonas aeruginosa PAM1723); format: functional
Mus musculus [19] = assay: In vivo number of survivors on day 7 after administration (7.5 mg/kg) in mice(Pseudomonas aeruginosa PAM1723); format: functional
Mus musculus [20] = assay: In vivo number of survivors on day 4 after administration (15 mg/kg) in mice Pseudomonas aeruginosa PAM1723); format: functional
Mus musculus [21] = assay: In vivo number of survivors on day 4 after administration (7.5 mg/kg) in mice(Pseudomonas aeruginosa PAM1723); format: functional
Mus musculus [22] = assay: In vivo number of survivors on day 7 after administration (30 mg/kg) in mice(Pseudomonas aeruginosa PAM1723); format: functional
Mus musculus [23] = assay: In vivo number of survivors on day 0 after administration (30 mg/kg) in mice(Pseudomonas aeruginosa PAM1723); format: functional
Mus musculus [24] = assay: In vivo percent survival on day 7th after administration (7.5 mg/kg) in mice(Pseudomonas aeruginosa PAM1723); format: functional
Mus musculus [25] = assay: In vivo number of survivors on day 1 after administration (15 mg/kg) in mice(Pseudomonas aeruginosa PAM1723); format: functional
Mus musculus [26] = assay: In vivo number of survivors on day 7 after administration (15 mg/kg) in mice(Pseudomonas aeruginosa PAM1723); format: functional
Mus musculus [27] = assay: In vivo number of survivors on day 0 after administration (15 mg/kg) in mice(Pseudomonas aeruginosa PAM1723); format: functional
Mus musculus [28] = assay: In vivo percent survival on day 7th after administration (30 mg/kg) in mice(Pseudomonas aeruginosa PAM1723); format: functional
Mus musculus [29] = assay: In vivo number of survivors on day 0 after administration (7.5 mg/kg) in mice(Pseudomonas aeruginosa PAM1723); format: functional
Mus musculus [30] = assay: In vivo number of survivors on day 4 after administration (30 mg/kg) in mice(Pseudomonas aeruginosa PAM1723); format: functional
Mus musculus [31] = assay: In vivo number of survivors on day 7 after administration at the dose of 50 mg/kg along LVFX (7.5 mg/kg) in mice (Pseudomonas aeruginosa PAM1723); format: functional
Mus musculus [32] = assay: In vivo number of survivors on day 0 after administration at the dose of 50 mg/kg along LVFX (7.5 mg/kg) in mice (Pseudomonas aeruginosa PAM1723); format: functional

Albumin, sequence (P02768 whole entry): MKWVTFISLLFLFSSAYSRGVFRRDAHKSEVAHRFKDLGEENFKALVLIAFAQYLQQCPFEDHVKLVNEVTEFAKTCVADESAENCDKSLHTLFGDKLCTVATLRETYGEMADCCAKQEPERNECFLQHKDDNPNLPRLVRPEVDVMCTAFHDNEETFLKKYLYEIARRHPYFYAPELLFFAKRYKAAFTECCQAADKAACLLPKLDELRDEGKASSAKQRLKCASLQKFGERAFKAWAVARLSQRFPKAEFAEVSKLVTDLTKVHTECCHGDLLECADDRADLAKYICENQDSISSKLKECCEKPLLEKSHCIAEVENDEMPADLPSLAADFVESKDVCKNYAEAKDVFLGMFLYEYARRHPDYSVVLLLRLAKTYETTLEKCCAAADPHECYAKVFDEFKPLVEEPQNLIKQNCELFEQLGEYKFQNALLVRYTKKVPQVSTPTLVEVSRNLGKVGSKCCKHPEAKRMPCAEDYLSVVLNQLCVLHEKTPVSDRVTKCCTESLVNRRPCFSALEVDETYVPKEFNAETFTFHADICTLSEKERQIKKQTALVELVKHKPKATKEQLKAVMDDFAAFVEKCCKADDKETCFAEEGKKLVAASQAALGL

Row | SMILES | Ratio [2] | Binding (Albumin) [%] | Kd (Albumin) [µM] | MPC8 (Pseudomonas aeruginosa [3]) | MPC8 (Pseudomonas aeruginosa [4]) [µg/mL] | MPC8 (Pseudomonas aeruginosa [5]) [µg/mL] | other results
1 | CC(C)c1csc(CCc2ccn3c(=O)c(-c4nnn[nH]4)cnc3c2)n1 | 1 | 81.5 | 327 | 10 µg/mL | 10 |  | MPC8 (Pseudomonas aeruginosa [1]): >80 µg/mL
2 | CC(C)c1csc(COc2ccn3c(=O)c(C(=O)O)cnc3c2)n1 | 2 |  |  | 40 µg/mL | 80 | 320 | 
3 | CC(C)c1csc(/C=C/c2ccn3c(=O)c(C(=O)O)cnc3c2)n1 | 0.5 |  |  | 80 µg/mL | 40 | >320 | 
4 | CC(C)c1csc(/C=C/c2cccc(NC(=O)Cc3ccccc3C(=O)O)c2)n1 | > 16 | > 99.9 | 0.28 | <=0.63 ug ml-1 | 10 | >60 | 
5 | CC(C)c1csc(/C=C/c2ccn3c(=O)c(-c4nnn[nH]4)cnc3c2)n1 | 1 | 90.8 | 22 | 2.5 µg/mL | 2.5 | 1.25 | No. of survivors (Mus musculus [6]): 10; No. of survivors (Mus musculus [7]): 10; No. of survivors (Mus musculus [8]): 7; survival at 50 mg/kg (Pseudomonas aeruginosa [9]): 70%; No. of survivors (Mus musculus [10]): 7; survival at 50 mg/kg (Pseudomonas aeruginosa [11]): 10%; No. of survivors (Mus musculus [12]): 1; No. of survivors (Mus musculus [13]): 10; No. of survivors (Mus musculus [14]): 1; No. of survivors (Mus musculus [15]): 1
6 | CCn1cc(C(=O)O)c(=O)c2ccc(/C=C/c3nc(C(C)C)cs3)cc21 | 1 |  |  | 10 µg/mL | 10 | >160 | 
7 | CC(C)c1csc(COc2cc3c(cc2F)c(=O)c(C(=O)O)cn3C2CC2)n1 | 1 | 90.5 |  | 10 µg/mL | 10 | 320 | 
8 | CCn1cc(-c2nnn[nH]2)c(=O)c2ccc(/C=C/c3nc(C(C)C)cs3)cc21 | 4 |  |  | 5 µg/mL | 20 | 1.25 | 
9 | C[C@H]1COc2c(N3CCN(C)CC3)c(F)cc3c(=O)c(C(=O)O)cn1c23.C[C@H]1COc2c(N3CCN(C)CC3)c(F)cc3c(=O)c(C(=O)O)cn1c23.O [LEVOFLOXACIN] |  |  |  |  |  |  | No. of survivors (Mus musculus [16]): 0; No. of survivors (Mus musculus [17]): 9; Survival (Mus musculus [18]): 10%; No. of survivors (Mus musculus [19]): 0; No. of survivors (Mus musculus [20]): 1; No. of survivors (Mus musculus [21]): 0; No. of survivors (Mus musculus [22]): 7; No. of survivors (Mus musculus [23]): 10; Survival (Mus musculus [24]): 0%; No. of survivors (Mus musculus [25]): 1; No. of survivors (Mus musculus [26]): 1; No. of survivors (Mus musculus [27]): 10; Survival (Mus musculus [28]): 70%; No. of survivors (Mus musculus [29]): 10; No. of survivors (Mus musculus [30]): 7
10 | CC(C)c1csc(COc2ccn3c(=O)c(-c4nnn[nH]4)cnc3c2)n1 | 1 | 88.4 | 66.4 | 5 µg/mL | 5 | 10 | No. of survivors (Mus musculus [31]): 4; No. of survivors (Mus musculus [7]): 10; survival at 50 mg/kg (Pseudomonas aeruginosa [9]): 100%; No. of survivors (Mus musculus [32]): 10; survival at 50 mg/kg (Pseudomonas aeruginosa [11]): 40%; No. of survivors (Mus musculus [12]): 4; No. of survivors (Mus musculus [15]): 4
11 | CC(C)c1csc(CCc2ccn3c(=O)c(C(=O)O)cnc3c2)n1 |  |  |  | >40 µg/mL | >40 |  | 
